According to PubChem BioAssay AID1259407 (Chemical Carcinogenesis Research Information System (CCRIS), 2018):
Active and inactive are the calls of the source. No rule for the calls is given here.

System: CCRIS mutagenicity, Ames/micronucleus/aberration tests
Test: CCRIS mutagenicity studies
[1] = Test System: AMES SALMONELLA TYPHIMURIUM, Strain/Indicator: TA100, Metabolic Activation: NONE, Method: PREINCUBATION
[2] = Test System: AMES SALMONELLA TYPHIMURIUM, Strain/Indicator: TA98, Metabolic Activation: NONE, Method: PREINCUBATION
[3] = Test System: UDS RAT HEPATOCYTES, Strain/Indicator: THY INCORP, Metabolic Activation: NONE, Method: AUTORADIOGRAPHY
[4] = Test System: AMES SALMONELLA TYPHIMURIUM, Strain/Indicator: TA98, Metabolic Activation: NONE, Method: STANDARD PLATE
[5] = Test System: AMES SALMONELLA TYPHIMURIUM, Strain/Indicator: TA98, Metabolic Activation: RAT, LIVER, S-9, AROCLOR 1254, Method: STANDARD PLATE
[6] = Test System: AMES SALMONELLA TYPHIMURIUM, Strain/Indicator: TA100, Metabolic Activation: NONE, Method: STANDARD PLATE
[7] = Test System: AMES SALMONELLA TYPHIMURIUM, Strain/Indicator: TA1537, Metabolic Activation: NONE, Method: STANDARD PLATE

For `Nc1cccc2cc3c(nc12)CCCC3`, the mutagenic call (Test System: AMES SALMONELLA TYPHIMURIUM, Strain/Indicator: TA97A, Metabolic Activation: NONE, Method: STANDARD PLATE) was “active; positive” and the mutagenic call (Test System: AMES SALMONELLA TYPHIMURIUM, Strain/Indicator: TA97A, Metabolic Activation: RAT, LIVER, S-9, AROCLOR 1254, Method: STANDARD PLATE) was “active; positive”.

In the case of `CC/C=C/C=C/C=C/C=C/C=C/OCC(O)c1ccccc1` (stereo unspecified), the mutagenic call [1] is reported as “active; positive”.

`Cc1cccc2c3c(c4cc5ccccc5cc4c12)N3` was tested, and the mutagenic call [2] was “active; positive”.

In the case of `C[C@H]1C(=O)O[C@@H]2CCN3CC=C(COC(=O)[C@](C)(O)[C@]1(C)O)[C@H]23`, the mutagenic call (Test System: AMES SALMONELLA TYPHIMURIUM, Strain/Indicator: TA100, Metabolic Activation: HAMSTER, LIVER, S-9, PCB, Method: PREINCUBATION) is reported as “inactive; negative”, the mutagenic call (Test System: AMES SALMONELLA TYPHIMURIUM, Strain/Indicator: TA100, Metabolic Activation: RAT, LIVER, S-9, PCB, Method: PREINCUBATION) is reported as “inactive; negative” and the mutagenic call (Test System: AMES SALMONELLA TYPHIMURIUM, Strain/Indicator: TA100, Metabolic Activation: RAT, LIVER, S-9, SODIUM PHENOBARBITAL AND BETA-NAPHTHOFLAVONE, Method: PREINCUBATION) is reported as “inactive; negative”. The mutagenic call (Test System: MOUSE LYMPHOMA, Strain/Indicator: L5178Y (TK+/TK-), Metabolic Activation: NONE, Method: MICROWELL) was “active; positive”, the mutagenic call (Test System: MOUSE LYMPHOMA, Strain/Indicator: L5178Y (TK+/TK-), Metabolic Activation: S-9, Method: MICROWELL) was “active; positive” and the mutagenic call (Test System: UDS HAMSTER HEPATOCYTES, Strain/Indicator: THY INCORP, Metabolic Activation: NONE, Method: AUTORADIOGRAPHY) was “active; positive”. The mutagenic call (Test System: UDS MOUSE HEPATOCYTES, Strain/Indicator: THY INCORP, Metabolic Activation: NONE, Method: AUTORADIOGRAPHY) was “active; positive” and the mutagenic call [3] was “active; positive”.

For `CCOC(=O)C1C(C=C(C)C)C1(C)C` (stereo unspecified), the mutagenic call [4] was “inactive; negative”, the mutagenic call [5] was “inactive; negative” and the mutagenic call [6] was “inactive; negative”. For the same molecule, the mutagenic call (Test System: AMES SALMONELLA TYPHIMURIUM, Strain/Indicator: TA100, Metabolic Activation: RAT, LIVER, S-9, AROCLOR 1254, Method: STANDARD PLATE) was “inactive; negative”, the mutagenic call (Test System: AMES SALMONELLA TYPHIMURIUM, Strain/Indicator: TA1535, Metabolic Activation: NONE, Method: STANDARD PLATE) was “inactive; negative” and the mutagenic call (Test System: AMES SALMONELLA TYPHIMURIUM, Strain/Indicator: TA1535, Metabolic Activation: RAT, LIVER, S-9, AROCLOR 1254, Method: STANDARD PLATE) was “inactive; negative”. The mutagenic call [7] was “inactive; negative”, the mutagenic call (Test System: AMES SALMONELLA TYPHIMURIUM, Strain/Indicator: TA1537, Metabolic Activation: RAT, LIVER, S-9, AROCLOR 1254, Method: STANDARD PLATE) was “inactive; negative” and the mutagenic call (Test System: E. COLI, Strain/Indicator: WP2, Metabolic Activation: NONE, Method: STANDARD PLATE) was “inactive; negative”. For the same molecule, the mutagenic call (Test System: E. COLI, Strain/Indicator: WP2, Metabolic Activation: RAT, LIVER, S-9, AROCLOR 1254, Method: STANDARD PLATE) was “inactive; negative”.

For `Nc1c(F)cc(-c2cc(F)c(N)c(F)c2)cc1F`, the mutagenic call (Test System: UDS HUMAN CELLS, Strain/Indicator: THY INCORP (NON-S-PHASE), Metabolic Activation: RAT, LIVER, S-9, PHENOBARBITAL, Method: LIQUID SCINTILLATION COUNTING) was “active; positive”.

For `O=Nc1ccc(Sc2ccccc2)cc1`, the mutagenic call (Test System: AMES SALMONELLA TYPHIMURIUM, Strain/Indicator: TA98(NR), Metabolic Activation: NONE, Method: STANDARD PLATE) was “active; positive”, the mutagenic call [4] was “active; positive” and the mutagenic call [5] was “active; positive”.

With `CN(C)CCCn1cc[n+](C)c1/C=N/O` the mutagenic call (Test System: AMES SALMONELLA TYPHIMURIUM, Strain/Indicator: TA97, Metabolic Activation: NONE, Method: STANDARD PLATE) was “inactive; negative”, the mutagenic call (Test System: AMES SALMONELLA TYPHIMURIUM, Strain/Indicator: TA97, Metabolic Activation: RAT, LIVER, S-9, Method: STANDARD PLATE) was “inactive; negative” and the mutagenic call [6] was “inactive; negative”. The mutagenic call (Test System: AMES SALMONELLA TYPHIMURIUM, Strain/Indicator: TA100, Metabolic Activation: RAT, LIVER, S-9, Method: STANDARD PLATE) was “inactive; negative”, the mutagenic call (Test System: AMES SALMONELLA TYPHIMURIUM, Strain/Indicator: TA104, Metabolic Activation: NONE, Method: STANDARD PLATE) was “inactive; negative” and the mutagenic call (Test System: AMES SALMONELLA TYPHIMURIUM, Strain/Indicator: TA104, Metabolic Activation: RAT, LIVER, S-9, Method: STANDARD PLATE) was “inactive; negative”. The mutagenic call [7] was “inactive; negative”, the mutagenic call (Test System: AMES SALMONELLA TYPHIMURIUM, Strain/Indicator: TA1537, Metabolic Activation: RAT, LIVER, S-9, Method: STANDARD PLATE) was “inactive; negative” and the mutagenic call (Test System: AMES SALMONELLA TYPHIMURIUM, Strain/Indicator: TA1538, Metabolic Activation: NONE, Method: STANDARD PLATE) was “inactive; negative”. The mutagenic call (Test System: AMES SALMONELLA TYPHIMURIUM, Strain/Indicator: TA1538, Metabolic Activation: RAT, LIVER, S-9, Method: STANDARD PLATE) was “inactive; negative”.

`Nc1nc(N)nc(N)n1` was tested, and the mutagenic call (End Point: IN VITRO CHROMOSOMAL ABERRATIONS, Test System: CHINESE HAMSTER OVARY CELLS, Metabolic Activation: NONE) was “inactive; negative”, the mutagenic call (End Point: IN VITRO CHROMOSOMAL ABERRATIONS, Test System: CHINESE HAMSTER OVARY CELLS, Metabolic Activation: RAT, LIVER, S-9, AROCLOR 1254) was “inactive; negative” and the mutagenic call (Test System: AMES SALMONELLA TYPHIMURIUM, Strain/Indicator: TA98, Metabolic Activation: HAMSTER, LIVER, S-9, AROCLOR 1254, Method: PREINCUBATION) was “inactive; negative”. The mutagenic call [2] was “inactive; negative”, the mutagenic call (Test System: AMES SALMONELLA TYPHIMURIUM, Strain/Indicator: TA98, Metabolic Activation: RAT, LIVER, S-9, AROCLOR 1254, Method: PREINCUBATION) was “inactive; negative” and the mutagenic call (Test System: AMES SALMONELLA TYPHIMURIUM, Strain/Indicator: TA100, Metabolic Activation: HAMSTER, LIVER, S-9, AROCLOR 1254, Method: PREINCUBATION) was “inactive; negative”. The mutagenic call [1] was “inactive; negative”, the mutagenic call (Test System: AMES SALMONELLA TYPHIMURIUM, Strain/Indicator: TA100, Metabolic Activation: RAT, LIVER, S-9, AROCLOR 1254, Method: PREINCUBATION) was “inactive; negative” and the mutagenic call (Test System: AMES SALMONELLA TYPHIMURIUM, Strain/Indicator: TA1535, Metabolic Activation: HAMSTER, LIVER, S-9, AROCLOR 1254, Method: PREINCUBATION) was “inactive; negative”. The mutagenic call (Test System: AMES SALMONELLA TYPHIMURIUM, Strain/Indicator: TA1535, Metabolic Activation: NONE, Method: PREINCUBATION) was “inactive; negative”, the mutagenic call (Test System: AMES SALMONELLA TYPHIMURIUM, Strain/Indicator: TA1535, Metabolic Activation: RAT, LIVER, S-9, AROCLOR 1254, Method: PREINCUBATION) was “inactive; negative” and the mutagenic call (Test System: AMES SALMONELLA TYPHIMURIUM, Strain/Indicator: TA1537, Metabolic Activation: HAMSTER, LIVER, S-9, AROCLOR 1254, Method: PREINCUBATION) was “inactive; negative”. For the same molecule, the mutagenic call (Test System: AMES SALMONELLA TYPHIMURIUM, Strain/Indicator: TA1537, Metabolic Activation: NONE, Method: PREINCUBATION) was “inactive; negative”, the mutagenic call (Test System: AMES SALMONELLA TYPHIMURIUM, Strain/Indicator: TA1537, Metabolic Activation: RAT, LIVER, S-9, AROCLOR 1254, Method: PREINCUBATION) was “inactive; negative” and the mutagenic call (Test System: UDS RAT HEPATOCYTES, Strain/Indicator: BROMODEOXYURIDINE INCORP, Metabolic Activation: NONE, Method: FLOW CYTOMETRIC ANALYSIS) was “inactive; negative”. For the same molecule, the mutagenic call [3] was “inactive; negative”.

In the case of `CCCCOC(N)=O`, the mutagenic call (Test System: E. COLI, Strain/Indicator: WP2 UVRA, Metabolic Activation: NONE, Method: FLUCTUATION TEST) is reported as “inactive; negative”.

In the case of `CC(=O)N(OC(=O)c1ccccc1)c1ccc2c(c1)Cc1ccccc1-2`, the mutagenic call [4] is reported as “active; positive” and the mutagenic call [5] is reported as “active; positive”.

In the case of `C#C[C@]1(O)C=C[C@H]2[C@@H]3CCC4=CC(=O)CC[C@@H]4[C@H]3CC[C@@]21CC`, the mutagenic call (End Point: IN VIVO MICRONUCLEUS, Test System: BONE MARROW POLYCHROMATIC ERYTHROCYTES, Species: MOUSE, Strain/Sex: NMRI/FEMALE, Route: INTRAGASTRIC) is reported as “inactive; negative”.
